Measurements published in US7442707B2, “CCI-779 polymorph and use thereof” (Wyeth, priority 2005, dated 2008).

Key:
[1] = Powder flow characteristics from crystal morphology at bench scale; type: physicochemical; conditions: Form II plate-like morphology vs Form I needle-like
[2] = Storage stability of crystalline Form II (conversion to Form I); type: physicochemical; conditions: stored under room temperature and pressure
Source text: Stable Form II can be prepared as described and stored under room temperature and pressure for greater than 3 months without conversion to Form I.

SMILES: COC1CC2CCC(C)C(O)(O2)C(=O)C(=O)N2CCCCC2C(=O)OC(C(C)CC2CCC(OC(=O)C(C)(CO)CO)C(OC)C2)CC(=O)C(C)/C=C(\C)C(O)C(OC)C(=O)C(C)CC(C)/C=C/C=C/C=C/1C (centres unmarked) [CCI-779 polymorph Form II, Rapamycin 42-ester with 3-hydroxy-2-(hydroxymethyl)-2-methylpropionic acid]
- powder flow characteristics relative to Form I [1]: better powder flow characteristics than form I
- storage time without conversion to Form I [2]: greater than 3 months
